How the values were obtained:
Assay in all cases: relative viability (nuclei count vs DMSO), 5 days (fraction); higher = more cells survive
[1] = compound: C1CC(C1)(C(=O)O)C(=O)O.[NH2-].[NH2-].[Pt+2] [Carboplatin] + O=C(CCCCCCC(=O)Nc1ccccc1)NO [Vorinostat] (partner 1 µM)
In short: (§1)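 Lung cancer cell lines, seeded in 1536-well plates, were treated the following day by pin tool with a single drug or with five library-drug doses (not always all listed) in √10 steps on top of a fixed anchor-drug dose. Cells were fixed and nuclei stained in one step after 5 days, and nuclei were counted. Relative viability is the nuclei count for treated wells divided by that for vehicle wells, reported as medians of duplicate plates.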

[2] = compound: CC[C@H](C)N1C=C(C2=C(C=C(C=C21)C3=CN=C(C=C3)N4CCNCC4)C(=O)NCC5=C(C=C(NC5=O)C)C)C [GSK126] + CC(C)C[C@H](NC(=O)[C@H](Cc1ccccc1)NC(=O)c1cnccn1)B(O)O [Bortezomib] (partner 0.002 µM)
In short: as §1

[3] = compound: CC[C@H](C)N1C=C(C2=C(C=C(C=C21)C3=CN=C(C=C3)N4CCNCC4)C(=O)NCC5=C(C=C(NC5=O)C)C)C [GSK126] + Cc1nc(NC(=O)N2CCC[C@H]2C(N)=O)sc1-c1ccnc(C(C)(C)C(F)(F)F)c1 [Alpelisib] (partner 2 µM)
In short: as §1

[4] = compound: C1CC(C1)(C(=O)O)C(=O)O.[NH2-].[NH2-].[Pt+2] [Carboplatin] + NC(=O)Nc1cc(-c2cccc(F)c2)sc1C(=O)N[C@H]1CCCNC1 [AZD7762] (partner 0.2 µM)
In short: as §1

Cell Line	relative viability ([1]; first compound 0.08 µM)	relative viability ([1]; first compound 0.253 µM)	relative viability ([1]; first compound 0.8 µM)	relative viability ([1]; first compound 2.53 µM)	relative viability ([1]; first compound 8 µM)	relative viability ([2]; first compound 0.08 µM)	relative viability ([2]; first compound 0.253 µM)	relative viability ([2]; first compound 0.8 µM)	relative viability ([2]; first compound 2.53 µM)	relative viability ([2]; first compound 8 µM)	relative viability ([3]; first compound 0.08 µM)	relative viability ([3]; first compound 0.253 µM)	relative viability ([3]; first compound 0.8 µM)	relative viability ([3]; first compound 2.53 µM)	relative viability ([3]; first compound 8 µM)	relative viability ([4]; first compound 0.08 µM)	relative viability ([4]; first compound 0.253 µM)	relative viability ([4]; first compound 0.8 µM)	relative viability ([4]; first compound 2.53 µM)	relative viability ([4]; first compound 8 µM)
IA-LM	0.952	1.05	1.05	0.913	0.81	0.98	0.789	0.847	0.796	0.788	0.893	0.927	0.784	0.724	0.664					
LK-2	0.154	0.299	0.273	0.306	0.31						1.09	0.993	0.734	1.13	0.876	0.712	0.582	0.341	0.412	0.497
NCI-H358	0.735	0.668	0.681	0.664	0.53						1.08	1.07	0.857	0.935	0.904	0.732	0.514	0.516	0.575	0.561
NCI-H520	0.668	0.745	0.837	0.775	0.395	0.745	0.709	0.571	0.522	0.754	0.946	0.758	0.931	0.864	0.783					
NCI-H522	0.882	0.904	0.944	0.968	0.669											0.783	0.74	0.876	0.908	0.728
NCI-H661	0.82	0.785	0.733	0.777	0.622	1	0.88	0.808	0.926	0.632	0.802	0.638	0.657	0.478	0.58					
NCI-H1299						1.03	1.01	0.999	0.969	1.06	1.12	1	1.01	0.994	1.18					
NCI-H1395	1.03	0.638	0.847	0.644	0.502						1.12	0.937	1.08	1.2	1.03	0.403	0.39	0.406	0.386	0.405
NCI-H1563						0.948	0.924	0.937	0.887	0.834	1.02	0.988	1.02	0.807	0.828					
NCI-H1648	0.527	0.544	0.434	0.351	0.357											0.662	0.62	0.538	0.696	0.539
NCI-H1650	0.64	0.584	0.599	0.459	0.271	0.233	0.25	0.185	0.183	0.19										
NCI-H1703						0.444	0.339	0.191	0.407	0.209	0.364	0.343	0.36	0.417	0.482	0.144	0.13	0.101		0.122
NCI-H1792						0.973	1.02	0.991	0.91	0.948	0.703	0.77	0.78	0.761	0.636	0.924	0.669	0.606	0.457	0.352
NCI-H1793	0.884	0.796	0.62	0.682	0.745						0.968	0.783	0.548	0.511	0.766	0.667	0.457	0.393	0.334	0.58
NCI-H1944	0.533	0.61	0.59	0.523	0.368						0.92	0.858	0.839	0.843	0.947	0.616	0.5	0.584	0.559	0.354
NCI-H2009	0.75	0.771	0.723	0.704	0.477	1.3	0.951	0.992	1.16	1.09	1.26	1.16	1.17	1.13	1.14					
NCI-H2023	0.628	0.733	0.434	0.299	0.11	1.45	1.01	1.19	1.39	1.37	0.635	0.641	0.588	0.677	0.571					
NCI-H2170	0.94	0.811	0.89	0.737	0.413						0.932	0.852	0.839	0.795	0.745	0.944	0.934	0.995	0.724	0.385
NCI-H2228	0.748	0.0948	0.623	0.566	0.343	1.01	0.787	0.763	1.08	1.05	0.848	0.52	0.691	0.99	0.783					
NCI-H2342	0.751	0.788	0.828	0.865	0.744											0.57	0.595	0.55	0.439	0.484
SK-LU-1	0.923	0.657	0.861	0.664	0.459	1.19	0.95	1.19	1.38	1.05	1.01	1.11	1.2	1.18	1.03					
SK-MES-1	1.19	1.06	1.08	1.01	0.961						0.901	0.878	0.92	0.868	0.996					
SW 900	0.476	0.522	0.501	0.528	0.519											0.651	0.689	0.531	0.533	0.542
SW 1573	0.739	1.01	0.865	0.817	0.396	1.06	1.1	0.989	1.01	1.26	0.725	0.811	0.819	0.773	0.786					

From the supplement of paper PMC10307832
